Reference: ChEMBL document CHEMBL1201862, “PubChem BioAssay data set” (2004)
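Interpolation was linear, between the two tested concentrations surrounding the appropriate level; five concentrations were tested over 48 hours in 96-well plates. GI50 is the concentration that inhibits growth by half.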 Calls of active or inactive are those of the source. Rule as the data show it: active = GI50 up to about 1.1 µM and inactive = higher.

Experiments:
Assay in all cases: growth of human tumour cells (NCI), 48 h
SNB-75 = test system: SNB-75
OVCAR-3 = test system: OVCAR-3
KM12 = test system: KM12
HCT-116 = test system: HCT-116
Malme-3M = test system: Malme-3M
CAKI-1 = test system: CAKI-1
SF-295 = test system: SF-295
OVCAR-5 = test system: OVCAR-5
SK-MEL-5 = test system: SK-MEL-5
OVCAR-4 = test system: OVCAR-4
UACC-62 = test system: UACC-62
HT-29 = test system: HT-29
ACHN = test system: ACHN
SF-268 = test system: SF-268
A549 = test system: A549
786-0 = test system: 786-0
RXF 393 = test system: RXF 393

SMILES | GI50 (SNB-75) | GI50 (OVCAR-3) | GI50 (KM12) | GI50 (HCT-116) | GI50 (Malme-3M) | GI50 (CAKI-1) | GI50 (SF-295) | GI50 (OVCAR-5) | GI50 (SK-MEL-5) | GI50 (OVCAR-4) | GI50 (UACC-62) | GI50 (HT-29) | GI50 (ACHN) | GI50 (SF-268) | GI50 (A549) | GI50 (786-0) | GI50 (RXF 393)
CCOC(=O)C(=O)Nc1c(C)cccc1C(C)C | 51.2 µM (inactive) | > 100 µM (inactive) | > 100 µM (inactive) | > 100 µM (inactive) | > 100 µM (inactive) | > 100 µM (inactive) | > 100 µM (inactive) | > 100 µM (inactive) | > 100 µM (inactive) | > 100 µM (inactive) | > 100 µM (inactive) | > 100 µM (inactive) | > 100 µM (inactive) | > 100 µM (inactive) | > 100 µM (inactive) | > 100 µM (inactive) | 
CC(=O)NC(ON1C(=O)COc2ccccc21)C(Cl)(Cl)Cl (stereo not given) | > 100 µM (inactive) | > 100 µM (inactive) | > 100 µM (inactive) | > 100 µM (inactive) | > 100 µM (inactive) | > 100 µM (inactive) | > 100 µM (inactive) | > 100 µM (inactive) |  | > 100 µM (inactive) | > 100 µM (inactive) | > 100 µM (inactive) | > 100 µM (inactive) | > 100 µM (inactive) | > 100 µM (inactive) | > 100 µM (inactive) | 
C=CCN(N=O)C(=O)N(CCC)CCCC(NC(C)=O)C(=O)NCc1ccccc1 (stereo not given) | > 100 µM (inactive) | > 100 µM (inactive) | > 100 µM (inactive) |  | > 100 µM (inactive) | > 100 µM (inactive) | > 100 µM (inactive) | > 100 µM (inactive) | > 100 µM (inactive) | > 100 µM (inactive) | > 100 µM (inactive) | > 100 µM (inactive) | > 100 µM (inactive) | > 100 µM (inactive) | > 100 µM (inactive) | > 100 µM (inactive) | > 100 µM (inactive)
[Zn+2][N+]12CCN3CCN4CCN(CC1)[PH]432 (stereo not given) | > 100 µM (inactive) | > 100 µM (inactive) | > 100 µM (inactive) | > 100 µM (inactive) | > 100 µM (inactive) |  | > 100 µM (inactive) | > 100 µM (inactive) | > 100 µM (inactive) | > 100 µM (inactive) | > 100 µM (inactive) | > 100 µM (inactive) | > 100 µM (inactive) |  | > 100 µM (inactive) | > 100 µM (inactive) | > 100 µM (inactive)
CCOc1ccc(NC(=O)CCC(=O)NN)cc1 | > 100 µM (inactive) | > 100 µM (inactive) | > 100 µM (inactive) |  | > 100 µM (inactive) | > 100 µM (inactive) | > 100 µM (inactive) | > 100 µM (inactive) | > 100 µM (inactive) | > 100 µM (inactive) |  | > 100 µM (inactive) | > 100 µM (inactive) | > 100 µM (inactive) | > 100 µM (inactive) | > 100 µM (inactive) | > 100 µM (inactive)
CN(C)CCNC(=O)c1ccccc1Nc1c(Cl)cccc1Cl | 2.07 µM (inactive) |  |  | 7.93 µM (inactive) |  |  |  | 10.4 µM (inactive) | 2.89 µM (inactive) | 14.6 µM (inactive) | 16.1 µM (inactive) | 6.75 µM (inactive) | 8.75 µM (inactive) | 16.2 µM (inactive) | 10.9 µM (inactive) | 4.62 µM (inactive) | 1.69 µM (inactive)
COc1ccc(NC(=O)NS(=O)(=O)c2ccc(C)cc2)nn1 | > 100 µM (inactive) | > 100 µM (inactive) | > 100 µM (inactive) |  | > 100 µM (inactive) | > 100 µM (inactive) | > 100 µM (inactive) | > 100 µM (inactive) | > 100 µM (inactive) | > 100 µM (inactive) | > 100 µM (inactive) | > 100 µM (inactive) | > 100 µM (inactive) | > 100 µM (inactive) | > 100 µM (inactive) | > 100 µM (inactive) | 
COc1ccc(C(C#N)NNC(=O)Cc2ccccc2)cc1OC (stereo not given) | 39.9 µM (inactive) |  | > 100 µM (inactive) | > 100 µM (inactive) | > 100 µM (inactive) | > 100 µM (inactive) | > 100 µM (inactive) | > 100 µM (inactive) | > 100 µM (inactive) | > 100 µM (inactive) | > 100 µM (inactive) | > 100 µM (inactive) | > 100 µM (inactive) | > 100 µM (inactive) | > 100 µM (inactive) | > 100 µM (inactive) | > 100 µM (inactive)
CCN(CC)c1ccc(/N=C2/C=CC(=C(C#N)C#N)c3ccccc32)c(C)c1 | 1.33 µM (inactive) | 1.86 µM (inactive) |  | 1.95 µM (inactive) | 1.87 µM (inactive) | 1.72 µM (inactive) | 2.28 µM (inactive) |  | 1.58 µM (inactive) | 1.88 µM (inactive) | 1.38 µM (inactive) | 3.24 µM (inactive) | 2.59 µM (inactive) |  | 2.18 µM (inactive) | 2.22 µM (inactive) | 1.08 µM (active)
COc1ccccc1NC(=O)CC(=O)NNCC(=O)Nc1nnc(-c2ccccc2)o1 | > 100 µM (inactive) | > 100 µM (inactive) | > 100 µM (inactive) | > 100 µM (inactive) |  | > 100 µM (inactive) | > 100 µM (inactive) | > 100 µM (inactive) | > 100 µM (inactive) | > 100 µM (inactive) | > 100 µM (inactive) | > 100 µM (inactive) | > 100 µM (inactive) | > 100 µM (inactive) | > 100 µM (inactive) | > 100 µM (inactive) | 
COC(=O)c1ccc(C(=O)OC)c2nc3cc(C)ccc3nc12 | > 100 µM (inactive) | > 100 µM (inactive) | > 100 µM (inactive) |  | > 100 µM (inactive) | > 100 µM (inactive) | > 100 µM (inactive) | > 100 µM (inactive) | > 100 µM (inactive) | > 100 µM (inactive) | > 100 µM (inactive) | > 100 µM (inactive) | > 100 µM (inactive) | > 100 µM (inactive) | > 100 µM (inactive) | > 100 µM (inactive) | 
Cc1cc(Cl)ccc1NC(=O)CCCC(=O)C1CCC/C1=N\NC(=O)CC#N (stereo not given) | > 100 µM (inactive) | > 100 µM (inactive) | > 100 µM (inactive) | > 100 µM (inactive) | > 100 µM (inactive) | > 100 µM (inactive) | > 100 µM (inactive) | > 100 µM (inactive) | > 100 µM (inactive) | > 100 µM (inactive) | > 100 µM (inactive) | > 100 µM (inactive) | > 100 µM (inactive) | > 100 µM (inactive) | > 100 µM (inactive) | > 100 µM (inactive) | 
Nc1ccc(C(=O)N/C(=C\c2cccc([N+](=O)[O-])c2)c2nc3cc(Cl)ccc3[nH]2)cc1 |  | > 100 µM (inactive) | > 100 µM (inactive) |  | > 100 µM (inactive) | 77.6 µM (inactive) | > 100 µM (inactive) | > 100 µM (inactive) | > 100 µM (inactive) | 50.4 µM (inactive) | > 100 µM (inactive) | > 100 µM (inactive) | > 100 µM (inactive) | 97.7 µM (inactive) | 77.3 µM (inactive) | 92 µM (inactive) | > 100 µM (inactive)
